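Results reflect a 48-hour exposure of cells in 96-well plates to compound at five concentrations. GI50: concentration for 50% inhibition of growth.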 Active and inactive are the calls of the source. Rule as the data show it: active = GI50 up to about 1.1 µM and inactive = higher.
Columns and labels:
Experiment in all cases: NCI tumour cell line growth inhibition, 48 h
ACHN = system: ACHN
CAKI-1 = system: CAKI-1
CCRF-CEM = system: CCRF-CEM
HCC 2998 = system: HCC 2998
HCT-116 = system: HCT-116
HL-60 = system: HL-60
HOP-92 = system: HOP-92
NCI-H460 = system: NCI-H460
NCI-H522 = system: NCI-H522
OVCAR-4 = system: OVCAR-4
SF-268 = system: SF-268
SF-295 = system: SF-295
SK-MEL-28 = system: SK-MEL-28
SK-OV-3 = system: SK-OV-3
SW-620 = system: SW-620
U-251 = system: U-251
DU-145 = system: DU-145
MCF7 = system: MCF7
MDA-MB-435 = system: MDA-MB-435

SMILES | GI50 (ACHN) | GI50 (CAKI-1) | GI50 (CCRF-CEM) | GI50 (HCC 2998) | GI50 (HCT-116) | GI50 (HL-60) | GI50 (HOP-92) | GI50 (NCI-H460) | GI50 (NCI-H522) | GI50 (OVCAR-4) | GI50 (SF-268) | GI50 (SF-295) | GI50 (SK-MEL-28) | GI50 (SK-OV-3) | GI50 (SW-620) | GI50 (U-251) | GI50 (DU-145) | GI50 (MCF7) | GI50 (MDA-MB-435)
CC(C)N(C(=O)C12C3C4C5(C#N)C3C1(C#N)C5C42I)C(C)C (configuration not stated) | > 100 µM (inactive) | > 100 µM (inactive) | > 39.9 µM (inactive) | > 100 µM (inactive) | 17.4 µM (inactive) | > 41 µM (inactive) | > 100 µM (inactive) | > 53.6 µM (inactive) | > 33.7 µM (inactive) | > 100 µM (inactive) | > 100 µM (inactive) | > 100 µM (inactive) | > 100 µM (inactive) | > 100 µM (inactive) | > 41.4 µM (inactive) | > 100 µM (inactive) |  |  | 
COc1ccc(C2=Nc3ccccc3SC(C)C2)cc1 (configuration not stated) | > 100 µM (inactive) | > 100 µM (inactive) | 33.4 µM (inactive) | > 100 µM (inactive) | 18 µM (inactive) | 46 µM (inactive) | > 100 µM (inactive) | > 100 µM (inactive) | > 100 µM (inactive) | > 100 µM (inactive) | > 100 µM (inactive) | > 100 µM (inactive) | > 100 µM (inactive) | > 100 µM (inactive) | > 100 µM (inactive) | 92.7 µM (inactive) |  |  | 
O=Cn1c2ccccc2c2ccccc21 | > 100 µM (inactive) |  | > 100 µM (inactive) | > 100 µM (inactive) | > 100 µM (inactive) | > 100 µM (inactive) | > 100 µM (inactive) | > 100 µM (inactive) | > 100 µM (inactive) |  | > 100 µM (inactive) | > 100 µM (inactive) | > 100 µM (inactive) | > 100 µM (inactive) | > 100 µM (inactive) | > 100 µM (inactive) |  |  | 
O=C(NCc1ccccc1)C1C(=O)C(=O)N(Cc2ccccc2)C1=O (configuration not stated) | > 100 µM (inactive) | 0.0113 µM (active) | > 100 µM (inactive) | > 100 µM (inactive) | > 100 µM (inactive) | > 100 µM (inactive) | > 100 µM (inactive) | > 100 µM (inactive) | > 100 µM (inactive) | > 100 µM (inactive) | > 100 µM (inactive) | > 100 µM (inactive) | > 100 µM (inactive) | > 100 µM (inactive) | > 100 µM (inactive) | > 100 µM (inactive) |  |  | 
CCCCCCCCCCCC[N+]12CC[N+](C)(CC1)CC2 | 55.1 µM (inactive) | 11.8 µM (inactive) | 18.8 µM (inactive) | 8.09 µM (inactive) | 38.7 µM (inactive) | 16.4 µM (inactive) | 14.9 µM (inactive) | 6.38 µM (inactive) | 19.4 µM (inactive) | 44.8 µM (inactive) | 18.7 µM (inactive) | 22.3 µM (inactive) | > 100 µM (inactive) | > 100 µM (inactive) | 44.3 µM (inactive) | 15.6 µM (inactive) |  |  | 
Clc1ccc(CCN[C@H]2CCCC[C@H]2N2CCCC2)cc1Cl | 38.6 µM (inactive) | 27.4 µM (inactive) | 30.7 µM (inactive) | 8.24 µM (inactive) | 19.5 µM (inactive) | 20.1 µM (inactive) |  | 14.9 µM (inactive) | 17.3 µM (inactive) | 21.5 µM (inactive) | 32.2 µM (inactive) | 16 µM (inactive) | 28.9 µM (inactive) | 22.8 µM (inactive) | 34 µM (inactive) | 43.7 µM (inactive) | 21.8 µM (inactive) | 16.1 µM (inactive) | 18.5 µM (inactive)
S=c1[nH]c(=S)c2nnn(-c3ccccc3)c2[nH]1 | > 100 µM (inactive) | > 100 µM (inactive) | > 100 µM (inactive) | > 100 µM (inactive) | 0.0836 µM (active) | > 100 µM (inactive) | > 100 µM (inactive) | > 100 µM (inactive) | > 100 µM (inactive) |  | > 100 µM (inactive) |  | > 100 µM (inactive) | > 100 µM (inactive) | > 100 µM (inactive) | > 100 µM (inactive) |  |  | 
CCOc1ccccc1NC(=O)CC1C(=O)Nc2ccccc2[S+]1[O-] (configuration not stated) | 66.2 µM (inactive) | > 100 µM (inactive) | 39.8 µM (inactive) | > 100 µM (inactive) | > 100 µM (inactive) | 26.8 µM (inactive) | 43.1 µM (inactive) | 80 µM (inactive) | 45.4 µM (inactive) | 32.4 µM (inactive) | > 100 µM (inactive) | > 100 µM (inactive) | > 100 µM (inactive) |  | > 100 µM (inactive) | 67.9 µM (inactive) |  |  | 
O=C(NCc1ccccc1)c1cc2ccc(O)c(O)c2cn1 | 15.5 µM (inactive) | 17.2 µM (inactive) | 32.1 µM (inactive) | > 100 µM (inactive) | 17.7 µM (inactive) | 18.8 µM (inactive) | 19.1 µM (inactive) | 21.7 µM (inactive) | 16.6 µM (inactive) | 16.6 µM (inactive) | 15.1 µM (inactive) | 16.9 µM (inactive) | 16.4 µM (inactive) | > 100 µM (inactive) | 21.4 µM (inactive) | 23.3 µM (inactive) |  |  | 
O=c1cc(CBr)c2ccc(O)cc2o1 | 66.4 µM (inactive) | 43.6 µM (inactive) | 54.3 µM (inactive) | 76.6 µM (inactive) | > 100 µM (inactive) | 48.3 µM (inactive) |  | 63.5 µM (inactive) | 42.1 µM (inactive) |  | > 100 µM (inactive) | 45.7 µM (inactive) | 80.4 µM (inactive) | 97.7 µM (inactive) | > 100 µM (inactive) | 53.3 µM (inactive) | 92 µM (inactive) | 69.7 µM (inactive) | 39 µM (inactive)
N#Cc1cccc(C2SCc3nc4ccccc4n32)c1 (configuration not stated) | 74 µM (inactive) | 32.4 µM (inactive) | > 100 µM (inactive) |  |  | 62.8 µM (inactive) | 36.3 µM (inactive) | > 100 µM (inactive) | 69.3 µM (inactive) | 86.7 µM (inactive) | > 100 µM (inactive) | > 100 µM (inactive) | > 100 µM (inactive) | > 100 µM (inactive) | > 100 µM (inactive) | > 100 µM (inactive) |  |  | 
CCCCNC1CCCCC[C@H]1O (some centres not stated) | > 100 µM (inactive) | > 100 µM (inactive) | > 100 µM (inactive) | > 100 µM (inactive) | > 100 µM (inactive) | > 100 µM (inactive) | > 100 µM (inactive) | > 100 µM (inactive) | > 100 µM (inactive) | > 100 µM (inactive) | > 100 µM (inactive) | > 100 µM (inactive) | > 100 µM (inactive) | > 100 µM (inactive) | > 100 µM (inactive) | > 100 µM (inactive) |  |  | 
COc1ccccc1C1C(C(=O)Nc2ccccc2)=C(C)NC(C)=C1C(=O)Nc1ccccc1 | 39.5 µM (inactive) | > 100 µM (inactive) |  | > 100 µM (inactive) | 65.8 µM (inactive) |  | 44.2 µM (inactive) | 44 µM (inactive) | 48.1 µM (inactive) | 54.8 µM (inactive) | > 100 µM (inactive) | 76.4 µM (inactive) | > 100 µM (inactive) | > 100 µM (inactive) | 93.8 µM (inactive) | 90.8 µM (inactive) |  |  | 
C/C(=C\C(C)COCc1ccccc1)[C@H](COCc1ccccc1)OCc1ccccc1 (some centres not stated) | > 100 µM (inactive) |  | 68.1 µM (inactive) | > 100 µM (inactive) | 85.1 µM (inactive) | > 10 µM (inactive) | 10.4 µM (inactive) | > 100 µM (inactive) | 88.5 µM (inactive) | 63.2 µM (inactive) | 76.2 µM (inactive) | > 100 µM (inactive) | > 100 µM (inactive) | > 100 µM (inactive) | > 100 µM (inactive) | > 100 µM (inactive) |  |  | 
O=[N+]([O-])c1ccc(C2N3CCCCC3[C@H]3CCCCN23)cc1 (some centres not stated) | > 100 µM (inactive) | > 100 µM (inactive) | > 100 µM (inactive) |  | > 100 µM (inactive) | > 100 µM (inactive) | > 100 µM (inactive) | > 100 µM (inactive) | > 100 µM (inactive) | > 100 µM (inactive) | > 100 µM (inactive) | > 100 µM (inactive) | > 100 µM (inactive) | > 100 µM (inactive) | > 100 µM (inactive) | > 100 µM (inactive) |  |  | 
NC(=O)NNC(=O)CCn1[nH]c(=O)c(Cl)c(Cl)c1=O | > 100 µM (inactive) | > 100 µM (inactive) | > 100 µM (inactive) | > 100 µM (inactive) | > 100 µM (inactive) | > 100 µM (inactive) | > 100 µM (inactive) | > 100 µM (inactive) | > 100 µM (inactive) | > 100 µM (inactive) | > 100 µM (inactive) | > 100 µM (inactive) | > 100 µM (inactive) | > 100 µM (inactive) | > 100 µM (inactive) | > 100 µM (inactive) |  |  | 
O=C1OCc2nc3c(c(-c4ccccc4C(F)(F)F)c21)C(=O)OC3 | > 100 µM (inactive) |  | > 100 µM (inactive) | > 100 µM (inactive) | > 100 µM (inactive) | > 100 µM (inactive) | > 100 µM (inactive) | > 100 µM (inactive) | > 100 µM (inactive) |  | > 100 µM (inactive) | > 100 µM (inactive) | > 100 µM (inactive) | > 100 µM (inactive) | > 100 µM (inactive) | > 100 µM (inactive) |  |  | 
CCc1cccc(C)c1NC(=O)C1=C(C)NC(C)=C(C(=O)Nc2c(C)cccc2CC)C1c1ccc2c(c1)OCO2 | 15.5 µM (inactive) | 18.8 µM (inactive) | 18.8 µM (inactive) | 19.7 µM (inactive) |  | 21.4 µM (inactive) | 18.2 µM (inactive) | 16.1 µM (inactive) | 15.9 µM (inactive) | 20.1 µM (inactive) | 20.3 µM (inactive) | 17.5 µM (inactive) | 15.6 µM (inactive) | 48.9 µM (inactive) | 20.2 µM (inactive) | 15.2 µM (inactive) |  |  | 
